Test results: US20250188110A1, “SPECIFIC SMALL MOLECULE INHIBITORS THAT BLOCK KMT9 METHYLTRANSFERASE ACTIVITY AND FUNCTION” (ALBERT-LUDWIGS-UNIVERSITÄT FREIBURG, priority 2021, published 2025)

Key:
[1] = target: T1, KMT9 (Homo sapiens, UniProt Q9Y5N5); test: Microscale thermophoresis (MST) KMT9 binding; conditions: microscale thermophoresis, His-tag labelled KMT9 (20 nM); read-out: MST
T1 sequence (Q9Y5N5 1-214): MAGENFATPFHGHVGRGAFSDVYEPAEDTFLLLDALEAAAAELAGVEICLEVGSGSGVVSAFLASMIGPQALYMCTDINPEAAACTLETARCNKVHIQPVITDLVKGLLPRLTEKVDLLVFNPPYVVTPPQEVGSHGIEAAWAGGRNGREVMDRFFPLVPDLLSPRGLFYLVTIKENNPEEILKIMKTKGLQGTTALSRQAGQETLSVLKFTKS
T1 sequence (Q9UI30 1-120 isoform Q9UI30-2 partner): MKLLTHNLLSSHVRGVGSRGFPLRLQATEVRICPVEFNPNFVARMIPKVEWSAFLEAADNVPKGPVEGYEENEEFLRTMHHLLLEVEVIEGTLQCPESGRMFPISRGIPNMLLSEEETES
Experimental: To determine the binding affinity of the compounds according to the present invention and KMT9, microscale thermophoresis (MST) analysis was performed with a NanoTemper Monolith NT.115 instrument (NanoTemper Technologies GmbH). KMT9 was labelled with a RED-Tris-NTA labelling kit (NanoTemper Technologies GmbH) based on the manufacturer's instructions. Buffer including 25 mM HEPES (pH 7.5), 100 mM NaCl, 1 mM DTT and 0.05% Tween was used for the reaction buffer. Varying concentrations of the tested compounds of formula (I) as indicated in Table 1 were titrated against His-tag labelled KMT9 proteins (20 nM). Samples were loaded into standard Capillaries (NanoTemper Technologies GmbH) and MST measurements were performed using 40% MST power and 100% LED power. For each set of binding experiments, MST measurement was carried out with Binding Affinity module in MO.Control program under Nano-RED Excitation. Datasets were processed with the MO.Affinity Analysis software (NanoTemper Technologies GmbH).
For the results of the microscale thermophoresis (MST) assay shown as “MST” in Table 1, “A” represents a Kd of equal to or less than 10 nM (Kd≤10 nM); “B” represents a Kd of greater than 10 nM and equal to or less than 100 nM (10 nM<Kd<100 nM); “C” represents a Kd of greater than 100 nM and equal to or less than 1000 nM (100 nM<Kd ≤ 1000 nM); “D” represents a Kd of greater than 1000 nM (1000 nM<Kd).

[2] = target: T1, KMT9; test: KMT9 thermal shift assay (SyproOrange); assay type: binding; conditions: ΔTm; 500 µM compound, 2 μM KMT9, 5X SO; read-out: Thermal shift
Experimental: The assay was carried out in 96-well Hard-Shell PCR plates (Bio-Rad Laboratories Inc.). Assay buffer consisted of 50 mM BTP, 1 mM MgCl2 and 1 mM DTT at a pH of 8.5 (adjusted using 1 M HCl and 1 M NaOH). 20X inhibitor stock (in DMSO), 2X enzyme stock and 4X SyproOrange (SO) stock (both in assay buffer) were prepared. 1 μL of 20X compound, 4 μL of assay buffer, 10 μL of 2X KMT9 and 5 μL of 4X SO were pipetted. For the no-compound control, 20X inhibitor stock was replaced by DMSO. The final volume was 20 μL. The plate was spun down at 700 rpm for 1 min using a Hettich UNIVERSAL 320 centrifuge and incubated at 25° C., shaking at 600 rpm. After incubation, the plate was spun down for 1 min at 700 rpm and measurement was conducted using a CFX96 Touch Real-Time PCR Detection System (Bio-Rad Laboratories Inc.). The plate was equilibrated at 20° C. for 4 min and then heated stepwise at a rate of 1° C. per 15 s until 95° C. After every step, fluorescence was measured in FRET mode. Calculation of melting points was conducted by a Boltzman sigmoidal model using GraphPad Prism 7.0.
For the results of the thermal shift assay shown as “Thermal shift” in Table 1, “++++” represents a ΔTm of greater 20 K, “+++” represents a ΔTm of greater than 15 K and less than or equal to 20 K (15 K<ΔTm≤20 K); “++” represents a ΔTm of greater than 10 K and less than or equal to 15 K (10 K<ΔTm ≤ 15 K); “+” represents a ΔTm of equal to or less than 10 K (ΔTm≤10 K).

[3] = target: T1, KMT9; test: KMT9 methyltransferase inhibition assay, 3H-SAM scintillation (entries 1-154); assay type: biochemical; conditions: entries 1-154: 3H-SAM assay, 25 nM KMT9, 5 μM ETF1
Experimental: The assay was carried out in 0.5 mL Eppendorf tubes in duplicates. Assay buffer consisted of 50 mM BTP, 1 mM MgCl2, 1 mM DTT and 0.01% Triton-X^100 at a pH of 8.5 (adjusted using 1 M HCl and 1 M NaOH). 20X inhibitor stock (in DMSO), 2X enzyme stock and 4X substrate mix (both in assay buffer) were prepared. The substrate mix consisted of Tritium-labelled S-adenosylmethionine (3H-SAM), S-adenosylmethionine (SAM) and eukaryotic peptide chain release factor subunit1 (Homo sapiens, residues 140-275)(ETF1). Final assay concentrations were set to 25 nM KMT9, 0.3 μM 3H-SAM, 0.7 µM SAM and 5 μM ETF1. […] 5 μL of 4x substrate mix was added to initiate the reaction. The final reaction volume was 20 μL. For the positive control, the compound of formula (I) was replaced by DMSO; for the negative control, the compound of formula (I) was replaced by DMSO and KMT9 was replaced by assay buffer. The reaction mix was incubated in an Eppendorf thermomixer comfort at 30° C. for 2 h, shaking at 300 rpm. The reaction was quenched using 5 μL 50% trichloroacetic acid (TCA) and incubated at 25° C. for 5 minutes. 22 μL of the mixture was transferred into 96-well MultiScreen@HTS FB filter plates (Merck KGaA, Darmstadt, Germany) and washed four times with 10% TCA and two times with 100% ethanol. The plate was dried overnight, the filters were transferred into individual 6 mL Pony Vials (Perkin Elmer Inc, Waltham, MA, USA) and incubated in 3 mL of Ultima Gold scintillation cocktail (Perkin Elmer Inc, Waltham, MA, USA) for 30 minutes. The scintillation signal was measured for 3x 1 min using TriCarb 2910 TR (Perkin Elmer) scintillation counter in 3H CPM mode (LL: 0, UL: 18.6). Inhibition was calculated using the following formula: […]
With xc: signal of compound, Xpos: mean signal of positive control, Xneg: mean signal of negative control. Data fitting was carried out by GraphPad 7.0 using nonlinear fit ([Inhibitor]vs. response-variable slope (four parameters)).
For the results of the methyltransferase inhibition assay shown as “Inhibition” in Table 1, “I” represents an IC50 less than 0.1 μM, “II” represents an IC50 equal or higher than 0.1 μM and less than 1 μM, “III” represents an IC50 equal or higher than 1 µM and less than 10 µM and “IV” represents an IC50 equal or higher than 10 µM

Compound	Kd [1] [nM]	ΔTm at 500 µM [2] [°C]	IC50 [3] [nM]
COCCn1cc(COc2ccc(CNCCCNC[C@H]3O[C@@H](n4cnc5c(N)ncnc54)[C@H](O)[C@@H]3O)cc2)nn1 [293 (190), (2R,3R,4S,5R)-2-(6-amino-9H-purin-9-yl)-5-(((3-((4-((1-(2-methoxyethyl)-1/-1,2,3-triazol-4-yl)methoxy)benzyl)amino)propyl)amino)methyl)tetrahydrofuran-3,4-diol]	> 1000	≤ 10	> 10000
Nc1ncnc2c1ncn2[C@@H]1O[C@H](C(=O)NCCCNCCc2ccc(Oc3ccccc3)cc2)[C@@H](O)[C@H]1O [297 (194), (2S,3S,4R,5R)-5-(6-amino-9H-purin-9-yl)-3,4-dihydroxy-N-(3-((4-phenoxyphenethyl)amino)propyl) tetrahydrofuran-2-carboxamide]	100 to 1000	≤ 10	1000 to 10000
Nc1ncnc2c1ncn2[C@@H]1O[C@H](C(=O)NCCCNCCc2ccccc2)[C@@H](O)[C@H]1O [301 (198), (2S,3S,4R,5R)-5-(6-amino-9H-purin-9-yl)-3,4-dihydroxy-N-(3-(phenethylamino)propyl) tetrahydrofuran-2-carboxamide]	100 to 1000	≤ 10	> 10000
CNc1ncnc2c1c(C)cn2[C@@H]1O[C@H](CNCCCNCCc2ccccc2)[C@@H](O)[C@H]1O [311 (210), (2R,3R,45,5R)-2-(5-methyl-4-(methylamino)-7//-pyrrolo[2,3-a]pyrimidin-7-yl)-5-(((3-(phenethylamino)propyl)amino)methyl)tetrahydrofuran-3,4-diol]	> 1000	≤ 10	> 10000
CCC(=O)NCCCNC[C@H]1O[C@@H](n2cnc3c(N)ncnc32)[C@H](O)[C@@H]1O [313 (212), N-(3-((((2R,3S,4R,5R)-5-(6-amino-9//-purin-9-yl)-3,4-dihydroxytetrahydrofuran-2-yl)methyl)amino)propyl)propionamide]	> 1000	≤ 10	> 10000
Nc1ncnc2c1c(Br)cn2[C@@H]1C[C@H](CNCCCNCCc2cccc(F)c2)[C@@H](O)[C@H]1O [317 (218), (1R,2S,3R,5R)-3-(4-amino-5-bromo-7H-pyrrolo[2,3-d]pyrimidin-7-yl)-5-(((3-((3-fluorophenethyl)amino)propyl)amino)methyl) cyclopentane-1,2-diol]	10 to 100	15 to 20	100 to 1000
Nc1ncnc2c1c(Br)cn2[C@@H]1C[C@H](CNCCCNCCc2ccc(F)cc2)[C@@H](O)[C@H]1O [319 (220), (1R,2S,3R,5R)-3-(4-amino-5-bromo-7H-pyrrolo[2,3-d]pyrimidin-7-yl)-5-(((3-((4-fluorophenethyl)amino)propyl)amino)methyl) cyclopentane-1,2-diol]	10 to 100	15 to 20	100 to 1000

Now from value to molecule:

Kd [1] [nM]	ΔTm at 500 µM [2] [°C]	IC50 [3] [nM]	Compound
100 to 1000	≤ 10	> 10000	COCCn1cc(-c2ccc(CCNCCCNC[C@H]3O[C@@H](n4cnc5c(N)ncnc54)[C@H](O)[C@@H]3O)cc2)nn1 [295 (192), (2R,3R,4S,5R)-2-(6-amino-9H-purin-9-yl)-5-(((3-((4-(1-(2-methoxyethyl)-1H-1,2,3-triazol-4-yl)phenethyl)amino)propyl)amino)methyl)tetrahydrofuran-3,4-diol]
100 to 1000	10 to 15	1000 to 10000	Nc1ncnc2c1ncn2[C@@H]1O[C@H](C(=O)NCCCNCCc2cccc(Oc3ccccc3)c2)[C@@H](O)[C@H]1O [299 (196), (2S,3S,4R,5R)-5-(6-amino-9H-purin-9-yl)-3,4-dihydroxy-N-(3-((3-phenoxyphenethyl)amino)propyl) tetrahydrofuran-2-carboxamide]
> 1000	≤ 10	> 10000	Nc1ncnc2c1ncn2[C@@H]1O[C@H](C(=O)NCCCNC(=O)Cc2ccccc2)[C@@H](O)[C@H]1O [303 (200)]
> 1000	≤ 10	> 10000	CCC(=O)NCCCNC(=O)[C@H]1O[C@@H](n2cnc3c(N)ncnc32)[C@H](O)[C@@H]1O [305 (204), (2,3S,4R,5R)-5-(6-amino-9//-purin-9-yl)-3,4-dihydroxy-N-(3-propionamidopropyl) tetrahydrofuran-2-carboxamide]
> 1000	≤ 10	> 10000	CCNC(=O)NCCCNC(=O)[C@H]1O[C@@H](n2cnc3c(N)ncnc32)[C@H](O)[C@@H]1O [307 (206), (2S,3S,4R,5R)-5-(6-amino-9H-purin-9-yl)-N-(3-(3-ethylureido)propyl)-3,4-dihydroxytetrahydrofuran-2-carboxamide]
> 1000	10 to 15	> 10000	CNc1ncnc2c1ccn2[C@@H]1O[C@H](CNCCCNCCc2ccccc2)[C@@H](O)[C@H]1O [309 (208), (2R,3R,45,5R)-2-(4-(methylamino)-7H-pyrrolo[2,3-d]pyrimidin-7-yl)-5-(((3-(phenethylamino)pronyl)amino)methyl) tetrahydrofuran-3.4-diol]
> 1000	≤ 10	> 10000	CCC(=O)NCCNC[C@H]1O[C@@H](n2cnc3c(N)ncnc32)[C@H](O)[C@@H]1O [315 (216), N-(2-((((2R,3S,4R,5R)-5-(6-amino-9H-purin-9-yl)-3,4-dihydroxytetrahydrofuran-2-yl)methyl)amino)ethyl)propionamide]
